In paper PMC5768801, “The PII signaling protein from red algae represents an evolutionary link between cyanobacterial and Chloroplastida PII proteins” (Scientific Reports, 2018):

Key:
PpPII-ScNAGK complex = PpPII-ScNAGK complex (Porphyra purpurea, UniProt P51254); assay: Coupled NAGK activity assay, ScNAGK with PpPII; format: biochemical, Synechocystis sp. PCC 6803; Porphyra purpurea; conditions: ScNAGK in the presence of PpPII, fixed 10 mM ATP
Protocol: (§1) The assess the activity of ScNAGK was measured with an enzyme assay, in which the ADP production was coupled to the NADH oxidation by the auxiliary enzymes pyruvate kinase and lactate dehydrogenase according to previously described procedure[32],[50]. […] The oxidation reaction of NADH was recorded for 10 min using spectrophotometer (SPECORD 210 PLUS, Analytik Jena AG) at 340 nm. […] The NADH molar absorption coefficient is 6178 L mol^−1 cm^−1 for at 340 nm, which was used for calculation. […] From the velocity slopes, the enzymatic constants Km, Kcat and IC50 were calculated using the Graph-Pad Prism software (GraphPad Software, USA).

ScNAGK = molecular target: T1, ScNAGK (Synechocystis sp., UniProt P73326); assay: Coupled NAGK activity assay, ScNAGK; format: biochemical, Synechocystis sp. PCC 6803
T1 sequence (P73326 1-297): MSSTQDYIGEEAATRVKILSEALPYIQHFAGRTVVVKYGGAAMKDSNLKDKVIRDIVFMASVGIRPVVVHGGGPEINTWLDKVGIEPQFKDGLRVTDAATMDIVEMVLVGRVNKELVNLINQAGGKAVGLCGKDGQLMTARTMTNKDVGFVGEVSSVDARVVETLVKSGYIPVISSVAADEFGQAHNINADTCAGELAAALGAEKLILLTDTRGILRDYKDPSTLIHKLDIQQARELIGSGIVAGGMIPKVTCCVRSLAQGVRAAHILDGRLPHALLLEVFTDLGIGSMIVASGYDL
Protocol: as §1

PipX = assay: Pull-down analysis of PipX binding to PII proteins; design: species or system Synechocystis sp. PCC 6803; conditions: 10 µM proteins, 1 mM ADP, Strep-Tactin column, Tricine-SDS-PAGE
From the text: In cyanobacteria, PipX is the second known receptor of PII signaling. We questioned whether red algal PII proteins have lost or retained the ability to bind to PipX. To test this possibility, we first analyzed complex formation using pull-down experiments (Supplementary Fig. S3A and B). The PII protein from Synechocystis sp. PCC 6803 (ScPII) was mixed with PipX in the presence of ADP and then the Strep-tagged PII was immobilized on the Strep-Tactin II column (Supplementary Fig. S3A). After extensive washes, the proteins were eluted with desthiobiotin and analyzed by Tricine-SDS-PAGE. Both proteins were detected in the elution. Thus, confirming previous studies[16]–[18], cyanobacterial PII was bound to PipX. When PpPII in the presence of PipX was immobilized on the column, no PipX signal was detected in the elution (Supplementary Fig. S3B).
For complex formation, the binding reactions were done in 300 μl of buffer (100 mM Tris HCl, pH 8.0, 150 mM NaCl, 1 mM EDTA) by adding 10 µM of purified proteins: His6-ScPipX and Strep-tag ScPII or Strep-tag PpPII. […] The eluted fractions were analyzed by Tricine-SDS PAGE[51] and stained with SimplyBlue™ SafeStain (Invitrogen).
Figure S3. […] Complex formation between PipX and ScPII (A) or PpPII (B) was assessed by pull-down. […] (C) Complex formation between PipX and PII proteins was assessed by SPR. […]

Chain of PpPII-ScNAGK complex (P51254 whole entry, one chain of several): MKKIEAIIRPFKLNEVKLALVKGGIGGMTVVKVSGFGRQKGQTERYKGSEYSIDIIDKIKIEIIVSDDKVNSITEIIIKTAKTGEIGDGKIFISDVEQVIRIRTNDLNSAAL

## CC(=O)N[C@@H](CCC(=O)O)C(=O)O [NAG, N-acetyl glutamate]
PpPII-ScNAGK complex; NAG variable substrate
  Kcat: 10.02 ± 1.11 s⁻¹
PpPII-ScNAGK complex; read-out: apparent Km for NAG
  Km: 4.25 ± 0.36 mM
ScNAGK; free ScNAGK, NAG variable substrate, fixed 10 mM ATP
  Kcat: 8.93 ± 1.40 s⁻¹
ScNAGK; read-out: Km value for N-acetyl glutamate (NAG), free ScNAGK, fixed 10 mM ATP
  Km: 16.2 ± 2.14 mM

## N=C(N)NCCC[C@H](N)C(=O)O [arginine]
ScNAGK; read-out: Feedback inhibition of ScNAGK, half maximal inhibitory concentration (IC50)
  IC50: 6.2 µM

## ScPII: PII protein from Synechocystis sp. PCC 6803, recombinant with C-terminal Strep-tag II
PipX
  complex formation with PipX (pull-down): bound to PipX
